In the NIST ThermoML archive (doi:10.1021/je400134d):
± gives the expanded uncertainty stated by the source.

Test: xn = mol fraction of the nth substance listed
Details: 100 kPa, Liquid; for speed of sound: Pulse-echo method; for mass density: Vibrating tube method

CNc1ccccc1 [N-methylaniline] + C1CCCCC1
Details | mass density [kg/m3] | speed of sound [m/s]
293.15 K, x1 = 0.0516 | 787.947 ± 0.25 | 1285.7 ± 1.4
293.15 K, x1 = 0.1047 | 798.075 ± 0.25 | 1294.4 ± 1.4
293.15 K, x1 = 0.1522 | 807.416 ± 0.26 | 1303 ± 1.4
293.15 K, x1 = 0.2023 | 817.479 ± 0.27 | 1313.2 ± 1.5
293.15 K, x1 = 0.2482 | 826.755 ± 0.27 | 1322.9 ± 1.5
293.15 K, x1 = 0.3018 | 837.718 ± 0.29 | 1335.3 ± 1.6
293.15 K, x1 = 0.3462 | 846.906 ± 0.3 | 1346.3 ± 1.6
293.15 K, x1 = 0.4049 | 859.091 ± 0.32 | 1362 ± 1.7
293.15 K, x1 = 0.4478 | 868.011 ± 0.34 | 1374.1 ± 1.7
293.15 K, x1 = 0.4972 | 878.435 ± 0.36 | 1389.1 ± 1.8
293.15 K, x1 = 0.5444 | 888.383 ± 0.39 | 1404.1 ± 1.8
293.15 K, x1 = 0.5942 | 898.936 ± 0.42 | 1420.7 ± 1.9
293.15 K, x1 = 0.6445 | 909.64 ± 0.45 | 1438.3 ± 1.9
293.15 K, x1 = 0.6931 | 920.029 ± 0.49 | 1456 ± 2
293.15 K, x1 = 0.7564 | 933.633 ± 0.55 | 1480.3 ± 2.1
293.15 K, x1 = 0.7917 | 941.225 ± 0.58 | 1494.2 ± 2.1
293.15 K, x1 = 0.8372 | 951.07 ± 0.63 | 1512.7 ± 2.2
293.15 K, x1 = 0.89 | 962.5 ± 0.69 | 1534.8 ± 2.2
293.15 K, x1 = 0.9446 | 974.383 ± 0.76 | 1558.2 ± 2.3
298.15 K, x1 = 0.0673 | 786.236 ± 0.25 | 1264.5 ± 1.4
298.15 K, x1 = 0.1073 | 793.946 ± 0.25 | 1271.7 ± 1.4
298.15 K, x1 = 0.1609 | 804.548 ± 0.26 | 1282 ± 1.4
298.15 K, x1 = 0.2065 | 813.772 ± 0.27 | 1291.8 ± 1.5
298.15 K, x1 = 0.2536 | 823.353 ± 0.28 | 1302.3 ± 1.5
298.15 K, x1 = 0.2963 | 832.165 ± 0.28 | 1312.6 ± 1.6
298.15 K, x1 = 0.3554 | 844.401 ± 0.3 | 1327.8 ± 1.6
298.15 K, x1 = 0.3981 | 853.363 ± 0.32 | 1339.6 ± 1.7
298.15 K, x1 = 0.4479 | 863.765 ± 0.34 | 1354 ± 1.7
298.15 K, x1 = 0.5055 | 875.962 ± 0.37 | 1371.8 ± 1.8
298.15 K, x1 = 0.5537 | 886.222 ± 0.39 | 1387.5 ± 1.8
298.15 K, x1 = 0.5968 | 895.414 ± 0.42 | 1402.5 ± 1.9
298.15 K, x1 = 0.6482 | 906.388 ± 0.46 | 1420.6 ± 1.9
298.15 K, x1 = 0.6939 | 916.254 ± 0.49 | 1437.6 ± 2
298.15 K, x1 = 0.753 | 928.945 ± 0.54 | 1460.4 ± 2.1
298.15 K, x1 = 0.795 | 938.08 ± 0.58 | 1477.2 ± 2.1
298.15 K, x1 = 0.8347 | 946.748 ± 0.62 | 1493.6 ± 2.2
298.15 K, x1 = 0.8896 | 958.645 ± 0.69 | 1516.7 ± 2.2
298.15 K, x1 = 0.9399 | 969.599 ± 0.75 | 1538.5 ± 2.3
303.15 K, x1 = 0.0581 | 779.854 ± 0.25 | 1239.8 ± 1.4
303.15 K, x1 = 0.1038 | 788.651 ± 0.25 | 1248.4 ± 1.4
303.15 K, x1 = 0.1557 | 798.906 ± 0.26 | 1258.8 ± 1.4
303.15 K, x1 = 0.2015 | 808.134 ± 0.27 | 1268.8 ± 1.5
303.15 K, x1 = 0.2526 | 818.565 ± 0.28 | 1280.6 ± 1.5
303.15 K, x1 = 0.2975 | 827.884 ± 0.29 | 1291.7 ± 1.6
303.15 K, x1 = 0.3479 | 838.328 ± 0.3 | 1304.9 ± 1.6
303.15 K, x1 = 0.3974 | 848.695 ± 0.32 | 1318.7 ± 1.7
303.15 K, x1 = 0.451 | 859.961 ± 0.34 | 1334.5 ± 1.7
303.15 K, x1 = 0.5005 | 870.442 ± 0.36 | 1351.5 ± 1.8
303.15 K, x1 = 0.5512 | 881.294 ± 0.39 | 1366.7 ± 1.8
303.15 K, x1 = 0.5922 | 890.064 ± 0.42 | 1380.8 ± 1.9
303.15 K, x1 = 0.6575 | 904.033 ± 0.46 | 1404.2 ± 1.9
303.15 K, x1 = 0.6956 | 912.351 ± 0.49 | 1418.6 ± 2
303.15 K, x1 = 0.7501 | 924.185 ± 0.54 | 1439.9 ± 2.1
303.15 K, x1 = 0.7995 | 934.921 ± 0.59 | 1459.7 ± 2.1
303.15 K, x1 = 0.8447 | 944.844 ± 0.64 | 1478.6 ± 2.2
303.15 K, x1 = 0.8956 | 955.901 ± 0.69 | 1500 ± 2.2
303.15 K, x1 = 0.9411 | 965.875 ± 0.75 | 1520 ± 2.3
